Results as given in patent publication US9657071B2, “IgE peptide vaccine” (NIPPON ZENYAKU KOGYO CO., LTD., priority 2012, dated 2017).

Tests used:
Format in all cases: in vivo
dog IgE [1] = test: Intravenous administration test using rats: IgG antibody against dog IgE (ELISA); settings: i.v.
Method: The dog IgE protein (Bethyl Laboratories, Inc.; P115), the mouse IgE protein (BD Biosciences, San Jose, Calif., USA), and the human IgE protein (Athens Research And Technology, Inc.; 16-16-090705-ML) were each prepared at 1 μg/mL, 500 ng/mL, 250 ng/mL, 125 ng/mL, 62.5 ng/mL, 31.2 ng/mL, 15.6 ng/mL, 7.8 ng/mL, 3.9 ng/mL, 1.95 ng/mL, and 0.97 ng/mL in an immobilization buffer (0.05 M carbonate buffer, pH 9.6), then added at a concentration of 100 μL/well to an ELISA plate, and left overnight at 4° C. The immobilization plate was washed once with PBS-T (0.05%). A blocking solution (4× Block Ace, Snow Brand Milk Products Co., Ltd.; UK-B80) was added thereto at a concentration of 200 μL/well. The plate was blocked by incubation at 37° C. for 1.5 hours. The serum was diluted 2000-fold with a diluent (PBS-T:Block Ace=9:1) and used. The serum of an unimmunized rat was similarly diluted and used as a negative control. […] Then, the measurement was performed using a plate reader (Bio-Rad Laboratories, Inc.; model 680) (dual: measurement: 450 nm, control: 570 nm).
This peptide was used in the immunization of rats without the use of an adjuvant, and antibody response to dog IgE was evaluated. […]
Blood was collected every 2 weeks from the administer start date up to 8 weeks after the third immunization. Serum was collected, and an IgG antibody against dog IgE was evaluated by ELISA (FIG. 13). […]

human IgE = test: Reactivity of serum of peptide-immunized rabbit with human IgE (ELISA); settings: 500 μg peptide + complete adjuvant s.c.
Method: (§1) 2 mL of the 250 μg/mL peptide (a total of 500 μg) used in Example 2 was mixed with an equal amount of a complete adjuvant (a total of 4 mL). Each rabbit was immunized with this mixture by the subcutaneous administration (amount of the peptide: 500 μg) at day 0 and weeks 2, 4, 6, and 8. Blood was collected 5 weeks after the week-8 administration (week 13 counted from day 0). Booster immunization was performed at week 14 counted from day 0, and blood was further collected 2 weeks thereafter (week 16 counted from day 0). Antibody titers in the collected blood were measured by ELISA. The serum of a rabbit that received no peptide was used as a control.
(§2) ELISA was performed by the following method: each […] recombinant CH3 solution of dog IgE, human IgE, mouse IgE, dog IgG, and cat IgE was immobilized at a concentration of 100 μL/well (100 ng/well) to a plate. The serum collected from the immunized rabbit was used (×200 to ×102400) as a primary antibody. An enzyme-labeled anti-rabbit IgG antibody (Zymed Laboratories Inc.) was used as a secondary antibody.

dog IgE [2] = test: Reactivity of serum of peptide-immunized rabbit with dog IgE (ELISA); settings: 500 μg peptide + complete adjuvant s.c.
Method: as §1, §2
Target sequence in this assay (as listed by the source): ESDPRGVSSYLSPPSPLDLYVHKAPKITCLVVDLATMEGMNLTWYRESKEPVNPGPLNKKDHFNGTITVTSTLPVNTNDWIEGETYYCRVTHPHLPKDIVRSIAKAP

Der f 2-specific IgE = Der f 2-specific IgE in serum of vaccinated, Der f 2-sensitized dogs; settings: dog
Method: The peptide used was MOUSE CH3-4-17-11 (mouse CH3 region amino acid sequence) (SEQ ID NO: 27). 2 mL (500 μg) of a solution of the peptide (concentration: 250 μg/mL) and 2 mL of a complete adjuvant (DIFCO ADJUVANT COMPLETE FREUND, Becton, Dickinson and Company Japan) were dispensed to microtubes. Liquids (4 mL per animal) emulsified by shaking for 15 minutes in a high-speed shaker were used as IgE peptide vaccines.
The animals used were 1 male and 7 females of 5- to 7-month-old beagles and were divided into an administration group (n=4; 08-33, 08-42, 08-43, and 08-44) and a non-administration group (n=4; 08-45, 08-46, 08-47, and 08-48).
The peptide was administered at days 0 (test start date), 14, and 28 in the first course and further at days 106 and 117 in the second course. The test substance was subcutaneously administered to the necks of the 4 animals in the administration group. The non-administration group was untreated.
Four weeks after the completion of the peptide administration of the first course (days 56 and 70 into the test), all of the animals were artificially sensitized. A mixed liquid (4.0 mL per animal) of 300 μg of Der f 2 (Lot No. 3, 1465 μg/mL, prepared by a drug research team) and 50 mg of an alum adjuvant (SIGMA® Aluminium hydrate IgE1, 13 mg/mL) was used as a sensitizing solution and administered intraperitoneally for the first shot and subcutaneously to the necks for the second shot.
Four weeks after the completion of the peptide administration of the second course (day 145 into the test), the artificial sensitization was boosted. A 1-mL solution prepared from Der f 2 (Lot No. 3: 0.205 mL of 1465 μg/mL: 300 μg) with saline was subcutaneously administered to the necks of all of the animals.
At days 0, 14, 28, 42, 56, 70, 77, 84, 98, 106, 117, 131, 145, and 152 (4 time points (0, 14, 28, and 42) were excluded for the non-administration group), blood was collected from the jugular vein of each individual using a syringe. After separation of serum, the serum was used to measure peptide-specific IgG concentrations and IgE-specific IgG concentrations in the serum.
Serum obtained at days 70, 77, 106, 117, 131, 145, and 152 were used in the measurement of Der f 2-specific IgE concentrations in the serum, which was consigned to AAC Laboratories Inc.

Sequence	anti-dog IgE IgG antibody titers in rat serum (dog IgE [1]; all dose groups, final day (8 weeks after the third vaccination day))	level of the IgG antibody against dog IgE (dog IgE [1]; rat, 1 mg, 500 μg, 100 μg or 50 μg per animal three times, no adjuvant, all groups)	response of immobilized human IgE to peptide-administered rabbit serum (human IgE)	response of immobilized dog IgE to peptide-administered rabbit serum (dog IgE [2])	Der f 2-specific IgE in serum, administration group versus non-administration group (Der f 2-specific IgE; all of the time points)	Der f 2-specific IgE concentrations in serum, administration group (Der f 2-specific IgE; day 70 (2 weeks after the first sensitization))	average of Der f 2-specific IgE concentrations in the serum of the administration group (Der f 2-specific IgE; day 77, 3 animals, excluding 08-43)	Der f 2-specific IgE concentrations in serum, administration group (Der f 2-specific IgE; day 106 (peak))	Der f 2-specific IgE concentrations in serum, administration group (Der f 2-specific IgE; day 152 (7 days after the boosting))	production of IgE after subsequent sensitization (Der f 2-specific IgE; summary of FIG. 6)
KKTSVSASQWYTKHHNNATT (listed as Mus musculus) [M4-7-11]	3000 times	a rise in the level of the IgG antibody against dog IgE was confirmed	–	–	–	–	–	–	–	–
QEKKTSVSASQWYTKHHNNATTSIT (listed as Mus musculus) [MOUSE CH3-4-17-11]	–	–	responded	responded	no significant difference	1528.8 ± 1823.6 ng/mL	1352.3 ng/mL	3091.8 ± 1542.6 ng/mL	3972.5 ± 1216.5 ng/mL	inhibited the production of IgE
